Data: patent publication US10780074B2, “Compounds and uses thereof” (Sunovion Pharmaceuticals Inc., priority 2017, dated 2020)
Counter-ions that a name gives are not always drawn.

System: behaviors of compound-treated mice
Assay: Neuropharmacological Assay (SmartCube)
Assay type: in vivo
Conditions: for minimal effective dose: Mus musculus, ip, 0.25 h, dose having 50% or more total activity in SmartCube, i.p., read-out: MED (minimal effective dose); for AD: ADHD (probability that activity matches class) / AG: analgesic (probability that activity matches class) / AX: anxiolytic (probability that activity matches class) / CE: cognitive enhancer (probability that activity matches class) / DP: anti-depressant (probability that activity matches class) / MS: mood stabilizer (probability that activity matches class) / PS: anti-psychotic (probability that activity matches class) / SD: sedative hypnotic (probability that activity matches class) / UN: uncharacterized CNS activity (probability that activity matches class): i.p. 15 min before behavioral test, most efficacious dose(s) of 3 doses
Procedure, shortened: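 Mice dosed i.p. 15 min before testing, with compound in N-methyl-2-pyrrolidone/PEG/propylene glycol, were video-recorded and algorithmically compared with reference-drug behavioral signatures. This gave class-match probabilities (antidepressant, anxiolytic, etc.) at the most efficacious of 3 doses. MED was defined as the dose with ≥50% total activity, usually tested across 0.3–30 mpk.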

Compound | minimal effective dose [mg/kg] | AD: ADHD (probability that activity matches class) | AG: analgesic (probability that activity matches class) | AX: anxiolytic (probability that activity matches class) | CE: cognitive enhancer (probability that activity matches class) | DP: anti-depressant (probability that activity matches class) | MS: mood stabilizer (probability that activity matches class) | PS: anti-psychotic (probability that activity matches class) | SD: sedative hypnotic (probability that activity matches class) | UN: uncharacterized CNS activity (probability that activity matches class)
NC[C@@H]1OCCc2c(-c3cnco3)cccc21 (single isomer, unassigned) [Compound 98, hydrochloride salt] | ≤ 3 | ++ (5% ≤ ++ <25%) | + (LOQ ≤ + <5%) | ++ (5% ≤ ++ <25%) | + (LOQ ≤ + <5%) | ++++ (50% ≤ ++++) | + (LOQ ≤ + <5%) | + (LOQ ≤ + <5%) | + (LOQ ≤ + <5%) | + (LOQ ≤ + <5%)
NC[C@H]1OCCc2c(-c3cnco3)cccc21 (single isomer, unassigned) [Compound 99, hydrochloride salt] | ≤ 3 | + (LOQ ≤ + <5%) | ++ (5% ≤ ++ <25%) | ++ (5% ≤ ++ <25%) | ++ (5% ≤ ++ <25%) | + (LOQ ≤ + <5%) | + (LOQ ≤ + <5%) | + (LOQ ≤ + <5%) | ++ (5% ≤ ++ <25%) | +++ (25% ≤ +++ <50%)
NC[C@@H]1OCCc2c(-c3ncc[nH]3)cccc21 (single isomer, unassigned) [Compound 108, hydrochloride salt] | 10 to 30 | + (LOQ ≤ + <5%) | ++ (5% ≤ ++ <25%) | ++ (5% ≤ ++ <25%) | + (LOQ ≤ + <5%) | ++ (5% ≤ ++ <25%) | + (LOQ ≤ + <5%) | ++ (5% ≤ ++ <25%) | ++ (5% ≤ ++ <25%) | +++ (25% ≤ +++ <50%)
NC[C@@H]1OCCc2c(-c3c[nH]cn3)cccc21 (single isomer, unassigned) [Compound 112, hydrochloride salt] | 10 to 30 | + (LOQ ≤ + <5%) | + (LOQ ≤ + <5%) | ++ (5% ≤ ++ <25%) | + (LOQ ≤ + <5%) | ++ (5% ≤ ++ <25%) | + (LOQ ≤ + <5%) | + (LOQ ≤ + <5%) | + (LOQ ≤ + <5%) | + (LOQ ≤ + <5%)
NC[C@H]1OCCc2c(-c3c[nH]cn3)cccc21 (single isomer, unassigned) [Compound 113, hydrochloride salt] | 3 to 10 | + (LOQ ≤ + <5%) | ++ (5% ≤ ++ <25%) | ++ (5% ≤ ++ <25%) | + (LOQ ≤ + <5%) | ++ (5% ≤ ++ <25%) | + (LOQ ≤ + <5%) | +++ (25% ≤ +++ <50%) | + (LOQ ≤ + <5%) | +++ (25% ≤ +++ <50%)
CNC[C@@H]1OCCc2c(-c3c[nH]cn3)cccc21 (single isomer, unassigned) [Compound 114, hydrochloride salt] | 10 to 30 | + (LOQ ≤ + <5%) | + (LOQ ≤ + <5%) | ++ (5% ≤ ++ <25%) | + (LOQ ≤ + <5%) | + (LOQ ≤ + <5%) | + (LOQ ≤ + <5%) | + (LOQ ≤ + <5%) | + (LOQ ≤ + <5%) | + (LOQ ≤ + <5%)
CNC[C@H]1OCCc2c(-c3c[nH]cn3)cccc21 (single isomer, unassigned) [Compound 115, hydrochloride salt] | 10 to 30 | + (LOQ ≤ + <5%) | + (LOQ ≤ + <5%) | ++ (5% ≤ ++ <25%) | + (LOQ ≤ + <5%) | + (LOQ ≤ + <5%) | + (LOQ ≤ + <5%) | + (LOQ ≤ + <5%) | + (LOQ ≤ + <5%) | + (LOQ ≤ + <5%)
CNC[C@@H]1OCCc2c(-c3ccnc(C)c3)cccc21 (single isomer, unassigned) [Compound 120, hydrochloride salt] | 10 to 30 | + (LOQ ≤ + <5%) | + (LOQ ≤ + <5%) | ++ (5% ≤ ++ <25%) | + (LOQ ≤ + <5%) | ++ (5% ≤ ++ <25%) | + (LOQ ≤ + <5%) | + (LOQ ≤ + <5%) | + (LOQ ≤ + <5%) | + (LOQ ≤ + <5%)
CNC[C@H]1OCCc2c(-c3ccnc(C)c3)cccc21 (single isomer, unassigned) [Compound 121, hydrochloride salt] | ≤ 3 | ++ (5% ≤ ++ <25%) | + (LOQ ≤ + <5%) | ++ (5% ≤ ++ <25%) | + (LOQ ≤ + <5%) | ++++ (50% ≤ ++++) | + (LOQ ≤ + <5%) | + (LOQ ≤ + <5%) | ++ (5% ≤ ++ <25%) | + (LOQ ≤ + <5%)
Cc1cc(-c2cccc3c2CCO[C@H]3CN)ccn1 (single isomer, unassigned) [Compound 122, hydrochloride salt] | 10 to 30 | + (LOQ ≤ + <5%) | + (LOQ ≤ + <5%) | ++ (5% ≤ ++ <25%) | + (LOQ ≤ + <5%) | + (LOQ ≤ + <5%) | + (LOQ ≤ + <5%) | + (LOQ ≤ + <5%) | + (LOQ ≤ + <5%) | + (LOQ ≤ + <5%)
Cc1cc(-c2cccc3c2CCO[C@@H]3CN)ccn1 (single isomer, unassigned) [Compound 123, hydrochloride salt] | ≤ 3 | ++ (5% ≤ ++ <25%) | + (LOQ ≤ + <5%) | ++ (5% ≤ ++ <25%) | + (LOQ ≤ + <5%) | ++++ (50% ≤ ++++) | + (LOQ ≤ + <5%) | + (LOQ ≤ + <5%) | + (LOQ ≤ + <5%) | + (LOQ ≤ + <5%)
